Results from ChEMBL document CHEMBL1201862, “PubChem BioAssay data set” (2004).
The source made the active and inactive calls.

How the values were obtained:
[1] = Luminescence Cell-Based Dose Confirmation HTS to Identify Inhibitors of Platelet Dense Granule Release. [Related pubchem assays: 1663 (Primary HTS), 1678 (Summary of Project)]; format: functional
[2] = Luminescence Cell-Based Dose Response HTS to Identify Inhibitors of 5'UTR Stem-Loop Driven Prion Protein mRNA Translation in H4 Neuroglioblastoma Cells. [Related pubchem assays: 1827 (Project Summary), 1813 (Primary HTS)]; format: functional
[3] = inhibitors of SNCA 5'UTR-driven reporter translation, confirmation, H4 neuroglioma cells, luminescence (AID 1988); format: functional, cell-based
[4] = Luminescence-based counterscreen assay for KLF5 inhibitors: dose response cell-based high throughput screening assay to identify cytotoxic compounds using the IEC-6 intestinal epithelial cell line. [Related pubchem assays: 1700 (Primary screen.), 1834 (Confirmation screen.), 1858 (Summary AID.), 1905 (Counterscreen.)]; format: functional
[5] = HEK293 cell cytotoxicity, dose response, cytotoxicity control, plate reader, cherry-picked samples (AID 743446); format: functional, cell-based
[6] = molecular target: Luciferin 4-monooxygenase (Photinus pyralis, UniProt P08659); assay: firefly luciferase enzyme inhibitors, dose response, biochemical, luminescence (AID 1891)
[7] = LGR2 antagonists, dose response, cell-based, HEK293, CRE-luciferase reporter, cherry pick, set 2 (AID 743343); format: functional;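 note: transfected cells were stimulated with diluted bursicon conditioned medium after compound addition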
[8] = MC4R antagonists, dose response, counter-screen for LGR2 antagonist project, cell-based, plate reader, cherry pick (AID 743444); format: functional;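 note: transfected HEK 293 cells stimulated with alpha-MSH peptide; potency of inhibitors of the alpha-MSH evoked signal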
NS3 = NS3 (Hepatitis C virus, UniProt A3EZJ3); assay: PubChem AID 2173; design: species or system Hepacivirus hominis
[9] = molecular target: Protein-tyrosine kinase 2-beta (Homo sapiens, UniProt Q14289);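 note: potency of inhibitors of PYK2 kinase phosphorylation of poly-GT substrate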
[10] = molecular target: Heat shock protein HSP 90-alpha (Homo sapiens, UniProt P07900); assay: Luminescence-based dose response biochemical high throughput screening assay for inhibitors of the Heat Shock Protein 90 (HSP90). [Related pubchem assays: 1831 (Summary AID.), 1846 (Confirmation screen.), 1789 (Primary screen.)]
[11] = inhibitors of Bluetongue virus cytopathic effect, confirmation, arbovirus, BSR cells (AID 1250); format: functional;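 note: protection from viral cytopathic effect measured as cell viability by ATP luminescence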
[12] = molecular target: Dual specificity tyrosine-phosphorylation-regulated kinase 1A (Rattus norvegicus, UniProt Q63470); format: biochemical, Homo sapiens
[13] = molecular target: Aryl hydrocarbon receptor (Homo sapiens, UniProt P35869); assay: Luminescence-based cell-based high throughput dose response assay for activators of the Aryl Hydrocarbon Receptor (AHR). [Related pubchem assays: 2796 (Primary screen (AHR activators in singlicate)), 2845 (Confirmation screen (AHR activators in triplicate)), 434939 (Counterscreen (PXR activators in triplicate)), 2804 (Summary (AHR activators))]; format: ADME
[14] = A549 cell cytotoxicity, dose response, cytotoxicity control, plate reader, cherry-pick, antagonist series (AID 743412); format: functional, cell-based
[15] = HepG2 cell cytotoxicity, dose response, cytotoxicity control, plate reader, cherry-pick, antagonist series (AID 743416); format: functional, cell-based
[16] = molecular target: T1, Low molecular weight phosphotyrosine protein phosphatase (Homo sapiens, UniProt P24666); format: functional; settings: read-out: IC50_Mean
T1 sequence (P24666 whole entry): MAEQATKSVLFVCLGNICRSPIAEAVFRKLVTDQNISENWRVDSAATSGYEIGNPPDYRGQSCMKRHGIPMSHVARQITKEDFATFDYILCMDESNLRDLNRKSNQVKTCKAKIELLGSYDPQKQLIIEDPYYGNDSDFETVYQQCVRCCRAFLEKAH

[17] = molecular target: T2, Heat shock factor protein 1 (Mus musculus, UniProt P38532); assay: inhibition of MG132-induced HSE-luciferase signal, confirmation, cell-based, NIH3T3, luminescence, dose retest (AID 2382); format: functional;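 note: NIH3T3 fibroblasts with HSF1-driven luciferase reporter stressed by proteasome inhibitor MG132; luminescence from HSF1-driven luciferase expression after 8 hours of MG132 stress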
T2 sequence (P38532 whole entry): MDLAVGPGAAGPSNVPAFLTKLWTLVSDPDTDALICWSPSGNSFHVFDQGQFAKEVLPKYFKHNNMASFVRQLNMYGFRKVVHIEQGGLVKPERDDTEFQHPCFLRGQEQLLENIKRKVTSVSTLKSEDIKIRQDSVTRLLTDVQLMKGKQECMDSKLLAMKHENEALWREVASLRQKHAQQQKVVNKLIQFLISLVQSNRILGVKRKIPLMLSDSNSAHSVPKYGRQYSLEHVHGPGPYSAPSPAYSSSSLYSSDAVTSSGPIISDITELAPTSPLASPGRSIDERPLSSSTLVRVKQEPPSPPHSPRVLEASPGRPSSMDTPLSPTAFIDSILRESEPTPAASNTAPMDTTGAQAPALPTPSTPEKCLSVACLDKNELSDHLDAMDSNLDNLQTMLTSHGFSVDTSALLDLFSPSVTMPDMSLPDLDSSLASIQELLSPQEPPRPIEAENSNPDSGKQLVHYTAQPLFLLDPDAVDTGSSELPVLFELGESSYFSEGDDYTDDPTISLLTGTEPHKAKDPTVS

[18] = molecular target: T1, Low molecular weight phosphotyrosine protein phosphatase; format: functional; settings: read-out: IC50_Mean; remark: listed apart in the source
Coagulation factor XII = molecular target: T3, Coagulation factor XII (Homo sapiens, UniProt P00748); format: functional;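 note: activated factor XIIa alpha cleaving a fluorogenic AMC peptide substrate; inhibitor potency from loss of enzyme activity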
T3 sequence (P00748 whole entry): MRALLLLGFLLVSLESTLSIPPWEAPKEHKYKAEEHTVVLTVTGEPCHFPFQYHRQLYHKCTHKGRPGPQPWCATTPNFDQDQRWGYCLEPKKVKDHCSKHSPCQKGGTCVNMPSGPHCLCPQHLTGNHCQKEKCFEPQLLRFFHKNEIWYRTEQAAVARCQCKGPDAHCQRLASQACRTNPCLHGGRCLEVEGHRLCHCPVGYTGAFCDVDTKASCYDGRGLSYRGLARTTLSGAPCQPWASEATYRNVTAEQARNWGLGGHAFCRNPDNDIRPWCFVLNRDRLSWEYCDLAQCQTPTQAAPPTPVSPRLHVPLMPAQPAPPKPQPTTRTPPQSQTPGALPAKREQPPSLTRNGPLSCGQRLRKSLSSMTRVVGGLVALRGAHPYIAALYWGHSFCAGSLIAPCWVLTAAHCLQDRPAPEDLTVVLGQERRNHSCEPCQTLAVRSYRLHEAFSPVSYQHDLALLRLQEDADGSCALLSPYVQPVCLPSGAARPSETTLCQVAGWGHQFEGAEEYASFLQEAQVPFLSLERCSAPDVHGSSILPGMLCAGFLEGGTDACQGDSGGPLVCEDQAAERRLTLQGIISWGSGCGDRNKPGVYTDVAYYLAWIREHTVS

Large T antigen = Large T antigen (Simian virus 40, UniProt P03070); format: functional, Betapolyomavirus macacae;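 note: Confirmatory-stage PubChem screen for compounds that inhibit SV40 T antigen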
[19] = Luminescence Cell-Based Dose Confirmation HTS to Identify Inhibitors of Polyadenylation.; format: functional
[20] = molecular target: Epstein-Barr nuclear antigen 1 (Epstein-Barr virus (strain B95-8) (HHV-4) (Human herpesvirus 4), UniProt P03211); assay: EBNA-1 inhibitors, dose response, biochemical, fluorescence polarization, 1536-well (AID 2381); design: species or system human gammaherpesvirus 4;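 note: fluorescence polarization of a Cy5 DNA probe bound by EBNA-1 protein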
[21] = molecular target: Lytic switch protein BZLF1 (Epstein-Barr virus (strain B95-8) (HHV-4) (Human herpesvirus 4), UniProt P03206); assay: EBV ZTA inhibitors, dose response, counter-screen for EBNA-1 inhibitor project, biochemical, fluorescence polarization, Epstein-Barr virus, 1536-well (AID 2377); design: species or system human gammaherpesvirus 4;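 note: fluorescence polarization of Cy5-labelled ZRE DNA probe bound by purified Zta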
Bcl-2-related protein A1 [22] = molecular target: T4, Bcl-2-related protein A1 (Mus musculus, UniProt Q07440); assay: Bfl-1 inhibitors blocking BH3 peptide binding, confirmation, biochemical, TR-FRET, mouse Bfl-1 (AID 621);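 note: TR-FRET binding of GST-Bfl-1 to FITC-labelled Bid peptide via terbium antibody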
T4 sequence (Q07440 whole entry): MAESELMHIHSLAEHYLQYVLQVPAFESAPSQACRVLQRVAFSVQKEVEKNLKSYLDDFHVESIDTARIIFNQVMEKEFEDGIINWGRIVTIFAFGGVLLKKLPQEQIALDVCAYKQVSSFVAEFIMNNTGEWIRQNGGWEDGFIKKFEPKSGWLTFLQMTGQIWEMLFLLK

[23] = molecular target: Glyceraldehyde-3-phosphate dehydrogenase (Homo sapiens, UniProt P04406)
Bcl-2-related protein A1 [24] = molecular target: T4, Bcl-2-related protein A1; assay: Bfl-1 binding inhibitors, SAR follow-up, biochemical, fluorescence polarization (AID 1070)
Protein Tat = Protein Tat (Human immunodeficiency virus type 1 group M subtype B (isolate HXB2)(HIV-1), UniProt P04608); format: functional;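 note: tat binding to TAR RNA read out by fluorescence polarization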
Protein skinhead-1 = molecular target: T5, Protein skinhead-1 (Caenorhabditis elegans, UniProt P34707); format: functional
T5 sequence (P34707 whole entry): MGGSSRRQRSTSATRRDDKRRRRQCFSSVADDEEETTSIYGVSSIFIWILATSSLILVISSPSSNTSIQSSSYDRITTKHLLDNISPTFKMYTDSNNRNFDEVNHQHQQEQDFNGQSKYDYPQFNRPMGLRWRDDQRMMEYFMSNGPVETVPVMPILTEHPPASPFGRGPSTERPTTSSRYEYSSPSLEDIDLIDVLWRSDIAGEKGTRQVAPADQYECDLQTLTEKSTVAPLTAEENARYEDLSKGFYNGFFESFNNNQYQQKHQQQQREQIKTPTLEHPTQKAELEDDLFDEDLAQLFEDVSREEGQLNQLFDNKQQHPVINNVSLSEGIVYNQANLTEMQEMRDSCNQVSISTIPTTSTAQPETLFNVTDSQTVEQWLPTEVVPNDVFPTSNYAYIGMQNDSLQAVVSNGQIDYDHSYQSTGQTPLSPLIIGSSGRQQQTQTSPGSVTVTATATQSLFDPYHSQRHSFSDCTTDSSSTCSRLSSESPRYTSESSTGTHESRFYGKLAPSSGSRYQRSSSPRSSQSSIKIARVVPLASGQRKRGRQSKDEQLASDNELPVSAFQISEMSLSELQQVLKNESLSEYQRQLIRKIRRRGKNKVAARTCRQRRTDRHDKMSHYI

cells = format: functional, cell-based; settings: INS-1E
[25] = Dose-response inhibition of insulin secretion in a rat insulinoma line at 5 mM glucose (AID 1117331); format: functional, cell-based; settings: INS-1E
[26] = HeLa 2N DNA content increase, dose response, cell-based, IC50 (AID 1117349); format: functional
[27] = HeLa 4N DNA content increase, dose response, cell-based, IC50 (AID 1117351); format: functional

Chain of NS3 (A3EZJ3 whole entry): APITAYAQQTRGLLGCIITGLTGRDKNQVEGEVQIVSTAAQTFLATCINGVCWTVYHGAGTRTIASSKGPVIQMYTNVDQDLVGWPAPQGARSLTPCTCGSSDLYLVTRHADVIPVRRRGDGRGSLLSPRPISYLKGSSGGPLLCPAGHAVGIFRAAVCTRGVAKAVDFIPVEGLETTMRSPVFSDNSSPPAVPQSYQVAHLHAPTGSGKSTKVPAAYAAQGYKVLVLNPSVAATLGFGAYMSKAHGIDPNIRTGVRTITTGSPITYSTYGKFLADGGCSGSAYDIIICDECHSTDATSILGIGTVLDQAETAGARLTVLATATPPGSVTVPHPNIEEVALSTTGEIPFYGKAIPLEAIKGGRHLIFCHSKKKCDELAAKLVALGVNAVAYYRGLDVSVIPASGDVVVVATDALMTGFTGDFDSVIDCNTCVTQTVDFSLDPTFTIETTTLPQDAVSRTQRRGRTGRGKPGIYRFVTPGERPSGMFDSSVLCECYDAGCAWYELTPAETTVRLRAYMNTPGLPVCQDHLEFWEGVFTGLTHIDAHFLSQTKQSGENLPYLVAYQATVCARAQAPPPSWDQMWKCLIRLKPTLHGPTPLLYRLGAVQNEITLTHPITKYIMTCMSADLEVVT
Chain of Lytic switch protein BZLF1 (P03206 whole entry): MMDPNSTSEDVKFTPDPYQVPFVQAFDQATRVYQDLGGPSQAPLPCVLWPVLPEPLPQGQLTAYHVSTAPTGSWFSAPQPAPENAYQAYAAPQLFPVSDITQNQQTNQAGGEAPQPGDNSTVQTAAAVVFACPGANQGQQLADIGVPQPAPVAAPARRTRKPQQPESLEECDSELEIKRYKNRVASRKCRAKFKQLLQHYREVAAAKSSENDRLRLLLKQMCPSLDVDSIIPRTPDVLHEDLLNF
Chain of Aryl hydrocarbon receptor (P35869 whole entry): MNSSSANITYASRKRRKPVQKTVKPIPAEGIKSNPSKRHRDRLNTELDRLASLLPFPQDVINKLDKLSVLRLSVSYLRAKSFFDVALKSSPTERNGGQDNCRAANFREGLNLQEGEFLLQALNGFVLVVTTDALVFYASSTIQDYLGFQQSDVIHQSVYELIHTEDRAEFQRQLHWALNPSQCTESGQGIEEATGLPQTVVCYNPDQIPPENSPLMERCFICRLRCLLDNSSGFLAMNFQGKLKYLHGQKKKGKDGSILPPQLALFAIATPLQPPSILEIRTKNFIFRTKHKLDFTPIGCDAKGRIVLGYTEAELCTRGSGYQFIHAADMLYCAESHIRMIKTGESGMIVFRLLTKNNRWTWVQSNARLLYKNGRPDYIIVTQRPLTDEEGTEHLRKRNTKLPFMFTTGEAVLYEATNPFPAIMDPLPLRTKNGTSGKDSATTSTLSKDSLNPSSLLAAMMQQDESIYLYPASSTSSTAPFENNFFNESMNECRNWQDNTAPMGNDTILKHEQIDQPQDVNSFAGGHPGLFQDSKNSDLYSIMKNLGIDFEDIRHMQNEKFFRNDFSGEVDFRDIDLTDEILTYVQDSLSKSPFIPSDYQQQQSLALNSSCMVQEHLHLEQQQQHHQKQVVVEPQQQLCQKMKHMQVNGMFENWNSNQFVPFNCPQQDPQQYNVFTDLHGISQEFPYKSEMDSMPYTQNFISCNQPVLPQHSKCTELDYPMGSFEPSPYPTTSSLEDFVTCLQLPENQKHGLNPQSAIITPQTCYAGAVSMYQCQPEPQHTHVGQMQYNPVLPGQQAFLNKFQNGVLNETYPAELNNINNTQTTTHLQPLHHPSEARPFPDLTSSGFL
Chain of Epstein-Barr nuclear antigen 1 (P03211 whole entry): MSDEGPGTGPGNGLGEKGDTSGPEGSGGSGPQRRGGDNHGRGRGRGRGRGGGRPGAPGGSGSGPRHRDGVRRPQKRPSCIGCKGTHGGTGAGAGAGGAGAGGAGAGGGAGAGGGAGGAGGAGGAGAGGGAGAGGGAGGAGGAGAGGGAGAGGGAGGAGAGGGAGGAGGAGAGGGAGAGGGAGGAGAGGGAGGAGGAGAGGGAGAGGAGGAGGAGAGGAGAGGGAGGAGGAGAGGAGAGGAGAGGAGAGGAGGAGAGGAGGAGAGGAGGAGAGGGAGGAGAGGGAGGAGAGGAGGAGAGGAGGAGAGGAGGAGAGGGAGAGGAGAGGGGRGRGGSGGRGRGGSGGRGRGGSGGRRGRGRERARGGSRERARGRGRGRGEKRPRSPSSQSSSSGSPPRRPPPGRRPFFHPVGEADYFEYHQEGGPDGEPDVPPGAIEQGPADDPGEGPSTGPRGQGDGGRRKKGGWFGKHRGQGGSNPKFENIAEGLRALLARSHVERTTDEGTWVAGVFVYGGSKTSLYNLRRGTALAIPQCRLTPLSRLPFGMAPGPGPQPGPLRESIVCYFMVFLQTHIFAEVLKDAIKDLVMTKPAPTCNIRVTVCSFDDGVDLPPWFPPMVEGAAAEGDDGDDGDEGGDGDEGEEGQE
Chain of Protein-tyrosine kinase 2-beta (Q14289 whole entry): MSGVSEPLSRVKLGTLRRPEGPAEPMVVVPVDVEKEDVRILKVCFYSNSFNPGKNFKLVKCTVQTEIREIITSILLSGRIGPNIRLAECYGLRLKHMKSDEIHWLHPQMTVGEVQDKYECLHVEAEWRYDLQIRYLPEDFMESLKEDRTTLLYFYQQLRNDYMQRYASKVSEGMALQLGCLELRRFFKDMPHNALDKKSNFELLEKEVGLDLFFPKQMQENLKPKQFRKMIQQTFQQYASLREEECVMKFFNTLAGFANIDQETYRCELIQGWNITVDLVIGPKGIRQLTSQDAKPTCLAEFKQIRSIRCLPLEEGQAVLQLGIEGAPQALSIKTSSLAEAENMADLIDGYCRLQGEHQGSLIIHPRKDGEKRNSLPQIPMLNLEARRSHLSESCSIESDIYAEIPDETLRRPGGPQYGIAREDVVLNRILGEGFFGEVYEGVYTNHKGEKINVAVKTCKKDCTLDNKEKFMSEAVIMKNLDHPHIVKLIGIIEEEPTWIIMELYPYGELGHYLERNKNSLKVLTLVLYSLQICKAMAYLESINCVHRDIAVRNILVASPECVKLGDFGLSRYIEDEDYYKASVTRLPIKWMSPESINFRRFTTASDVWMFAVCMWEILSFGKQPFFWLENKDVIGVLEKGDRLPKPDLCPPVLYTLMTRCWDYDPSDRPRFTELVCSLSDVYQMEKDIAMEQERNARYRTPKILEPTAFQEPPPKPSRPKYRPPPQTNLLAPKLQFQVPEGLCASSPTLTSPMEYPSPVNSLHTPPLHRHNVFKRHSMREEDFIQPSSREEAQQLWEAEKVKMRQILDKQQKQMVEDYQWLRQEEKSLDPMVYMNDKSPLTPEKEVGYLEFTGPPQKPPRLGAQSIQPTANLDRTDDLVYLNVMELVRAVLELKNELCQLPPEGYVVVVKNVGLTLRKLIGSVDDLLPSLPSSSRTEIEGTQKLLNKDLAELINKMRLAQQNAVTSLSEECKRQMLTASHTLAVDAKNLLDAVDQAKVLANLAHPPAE
Chain of Luciferin 4-monooxygenase (P08659 whole entry): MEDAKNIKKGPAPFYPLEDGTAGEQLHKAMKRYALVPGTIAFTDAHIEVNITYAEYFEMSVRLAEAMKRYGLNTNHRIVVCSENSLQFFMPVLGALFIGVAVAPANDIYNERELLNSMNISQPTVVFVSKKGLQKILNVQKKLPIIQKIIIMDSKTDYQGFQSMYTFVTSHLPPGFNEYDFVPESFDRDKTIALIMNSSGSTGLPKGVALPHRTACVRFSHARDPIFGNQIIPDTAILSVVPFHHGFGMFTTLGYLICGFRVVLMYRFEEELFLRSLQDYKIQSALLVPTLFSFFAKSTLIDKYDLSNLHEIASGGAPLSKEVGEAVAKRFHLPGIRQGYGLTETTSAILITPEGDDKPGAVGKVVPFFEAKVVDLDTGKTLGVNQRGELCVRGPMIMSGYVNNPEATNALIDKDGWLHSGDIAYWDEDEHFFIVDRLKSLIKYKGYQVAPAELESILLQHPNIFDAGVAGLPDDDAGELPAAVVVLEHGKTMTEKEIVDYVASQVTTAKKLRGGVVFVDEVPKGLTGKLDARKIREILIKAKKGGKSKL
Chain of Protein Tat (P04608 whole entry): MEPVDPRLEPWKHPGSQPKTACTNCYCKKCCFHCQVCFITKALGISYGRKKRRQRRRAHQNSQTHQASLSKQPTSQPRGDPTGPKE
Chain of Large T antigen (P03070 whole entry): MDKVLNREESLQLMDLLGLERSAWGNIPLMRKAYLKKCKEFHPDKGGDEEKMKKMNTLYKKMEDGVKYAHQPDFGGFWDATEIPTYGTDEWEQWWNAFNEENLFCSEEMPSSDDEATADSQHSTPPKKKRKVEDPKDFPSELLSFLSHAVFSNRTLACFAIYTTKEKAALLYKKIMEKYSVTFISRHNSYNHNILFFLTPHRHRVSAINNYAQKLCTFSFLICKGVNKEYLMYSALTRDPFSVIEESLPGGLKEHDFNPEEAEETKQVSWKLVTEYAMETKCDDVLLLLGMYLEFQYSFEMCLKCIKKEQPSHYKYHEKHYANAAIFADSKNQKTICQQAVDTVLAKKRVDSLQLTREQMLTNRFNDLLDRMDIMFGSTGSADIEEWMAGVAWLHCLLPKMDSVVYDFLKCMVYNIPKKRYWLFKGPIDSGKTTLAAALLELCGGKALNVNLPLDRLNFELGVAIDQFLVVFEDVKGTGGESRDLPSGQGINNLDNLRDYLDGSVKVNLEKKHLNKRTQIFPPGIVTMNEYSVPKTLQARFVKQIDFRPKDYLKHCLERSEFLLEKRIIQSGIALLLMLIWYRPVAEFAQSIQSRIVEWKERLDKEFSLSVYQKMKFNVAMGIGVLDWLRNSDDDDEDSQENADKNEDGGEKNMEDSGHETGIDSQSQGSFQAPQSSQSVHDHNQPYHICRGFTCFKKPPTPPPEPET

O=C(Nc1cccc(O)c1)c1cc(-c2ccc3c(c2)OCO3)on1
EC50 [1]: 1.71 µM (active) | EC50 [2]: > 120 µM (not active) | EC50 [3]: 5.97 µM (active) | IC50 [4]: > 39.8 µM (not active) | AC50 [5]: 6.57 µM (active) | EC50 [6]: 0.349 µM (active) | AC50 [7]: 4.08 µM (active) | AC50 [8]: 5.8 µM (active)

CC(Oc1ccccc1)C(=O)Nc1oc(-c2ccco2)c(-c2ccco2)c1C#N (configuration not stated)
IC50 (NS3): 16.7 µM (not active)

c1ccc(-c2nccc(-c3ccc(-n4cnc5ccccc54)cc3)n2)cc1
IC50 [9]: 2.64 µM (active)

Cc1ccc(C(=O)CSc2ccccc2C(=O)O)cc1
IC50 [10]: 10.8 µM (not active)

N#Cc1c(C(F)(F)F)cc(-c2cccc(Cl)c2)nc1O
IC50 [11]: 42.9 µM (active) | AC50 [12]: 7.04 µM (active)

[O-][n+]1onc2c3cc(-c4ccccc4)nnc3ccc21
EC50 [13]: 1.48 µM (active)

CN1CCN(c2ccc(NC(=O)c3sc4ccccc4c3Cl)cc2)CC1
EC50 [13]: > 0.377 µM (active) | AC50 [14]: 22 µM (active) | AC50 [7]: 2.49 µM (active) | AC50 [15]: 25.5 µM (active) | AC50 [8]: 7.85 µM (active)

CCCCOc1ccc(C2C(C(=O)c3ccc(C)o3)=C(O)C(=O)N2Cc2ccco2)cc1 (configuration not stated)
IC50 [16]: > 80 µM (inactive) | EC50 [17]: 46.6 µM (active) | IC50 [18]: 54.5 µM (inactive) | IC50 (NS3): 3.26 µM (active)

O=C(O)CN1C(=O)/C(=C/c2ccc(N3CCCCC3)o2)SC1=S
IC50 (Coagulation factor XII): > 50 µM (inactive) | IC50 (Large T antigen): 31.7 µM (active) | EC50 [19]: 10.6 µM (active)

COc1cccc(N2CCN(S(=O)(=O)c3ccc(-c4cnc(C5CC5)o4)cc3)CC2)c1
IC50 [20]: 6.91 µM (active) | IC50 [21]: > 111 µM (not active)

O=C1C(Cl)=C(Cl)C(=O)N1c1cccc(Cl)c1
IC50 (Bcl-2-related protein A1 [22]): 5.17 µM (active) | IC50 [23]: > 100 µM (not active) | IC50 (Bcl-2-related protein A1 [24]): 3.41 µM (active)

COc1ccc(C2CC(C(F)(F)F)n3nc(C(=O)Nc4ccc5c(c4)OCO5)cc3N2)cc1 (configuration not stated)
IC50 (Coagulation factor XII): > 50 µM (inactive) | IC50 [20]: 9.48 µM (active) | IC50 [21]: > 111 µM (not active)

CCOc1ccc(-c2nnn(CC(=O)c3ccc4c(c3)OCCO4)n2)cc1OCC
IC50 (Protein Tat): > 100 µM (active)

Clc1ccc(-n2nnc(-c3cccnc3)n2)cc1Cl
IC50 (Bcl-2-related protein A1 [22]): > 100 µM (not active) | IC50 (Protein skinhead-1): 57.3 µM (inactive) | IC50 (Bcl-2-related protein A1 [24]): > 100 µM (not active)

COc1cc(C(=O)OCCCN2CCCN(CCCOC(=O)c3cc(OC)c(OC)c(OC)c3)CC2)cc(OC)c1OC [DILAZEP]
IC50 (cells): 18 µM (inactive) | IC50 [25]: 10.2 µM (inactive)

COc1ccc(-c2nc3cc(C4=NNC(=O)CC4C)ccc3[nH]2)cc1 (configuration not stated) [PIMOBENDAN]
IC50 [26]: > 10 µM (inactive) | IC50 [27]: > 10 µM (inactive)
